Read-outs that look alike come from different tables or passages of the source.
How the values were obtained:
[1] = NAL depletion under and without ultraviolet irradiation, HPLC with UV detection (281 nm); conditions: single compound
Experimental: (§1) A 1 mmol/L solution of a test substance in water, acetonitrile, acetone, or 5% by mass dimethyl sulfoxide (DMSO)/acetonitrile solution is prepared and used as a test substance solution. A solvent in which the test substance is soluble at a concentration of 1 mmol/L is used. If the test substance is soluble in a plurality of solvents, the solvent is selected in the following order of priority: water, acetonitrile, acetone, and 5% by mass DMSO/acetonitrile.
(§2) Test substance solutions are prepared on a 96-well plate (U96 PP-0.5 ML NATURAL, Thermo (NUNC)), mainly using a 12-channel pipette, and the reagents are added in the following amounts:
(§3) Nucleophilic reagents (NAC and NAL): 150 μL
Test substance solution: 50 μL
(§4) The plate is firmly sealed with a plate seal (resistant embossed seal, Shimadzu GLC Ltd.) and is shaken on a plate shaker (Titramax 100, Heidolph Instruments). After being spun down in a centrifuge, the reaction solutions are irradiated with light at 2,000 μW/cm^2 using an SXL-2500V2 ultraviolet irradiation apparatus (manufactured by SERIC., Ltd.) for 1 hour, followed by incubation at 25° C. in a light-shielded state for 23 hours. As controls without light irradiation, reaction solutions are prepared, followed by incubation at 25° C. in a light-shielded state for 24 hours.
(§5) For measurements using a fluorescence detector, 180 μL of the reaction stop solution (0.5% (v/v) TFA) is dispensed into each well of another plate in advance, and 20 μL of each sample is added so that the sample is diluted 10-fold.
(§6) The depletion of NAC or NAL is calculated from the average (n=3) peak area of unreacted NAC or NAL after the reaction and the average (n=3) peak area of NAC or NAL in a standard solution (no test substance added) by the following equations:
(§7) NAL depletion (% depletion)=[1−(average peak area of unreacted NAL after reaction/average peak area of NAL) in standard solution (no test substance added)]×100
(§8) The average peak area of unreacted NAL after the reaction is the average area calculated from three measurements on unreacted NAL after the reaction. The average peak area of NAL in a standard solution (no test substance added) is the average area calculated from three measurements on NAL in a reaction solution prepared by adding the solvent used for dissolution of the test substance instead of the test substance solution.
(§9) As the conditions without light irradiation, the 1 mmol/L test substance solutions were each reacted with the nucleophilic reagents, namely, NAC and NAL, at 25° C. for 24 hours. As the conditions with light irradiation, the 1 mmol/L test substance solutions were each irradiated at room temperature with light at 2,000 μW/cm^2 for 1 hour and were then reacted at 25° C. for 23 hours.
(§10) All reactions were performed on the 96-well plate. For each sample, n=3. As comparative controls, reaction solutions to which only the solvents, which are used to dissolve the test substances, were added were also prepared. The reaction solutions were prepared such that the concentrations of NAC and NAL were 5 μmon and the concentration of the test substance was 0.25 mmol/L. After 24 hours, HPLC measurements were made by two detection methods, namely, light absorption detection on a photodiode array (PDA) detector and fluorescence detection on a fluorescence detector. For PDA detection, a trifluoroacetic acid (TFA) aqueous solution was added to the reaction solutions to a final TFA concentration of 0.5% (v/v) before use in the HPLC measurements. For fluorescence detection, each sample was diluted tenfold with a 0.5% (v/v) trifluoroacetic acid (TFA) aqueous solution before use in the HPLC measurements.

[2] = Average score of NAC and NAL depletion and phototoxicity or photoallergy determination, fluorescence detection; conditions: single compound
Experimental: (§11) After being spun down in a centrifuge, the reaction solutions are irradiated with light at 2,000 μW/cm^2 using an SXL-2500V2 ultraviolet irradiation apparatus (manufactured by SERIC., Ltd.) for 1 hour, followed by incubation at 25° C. in a light-shielded state for 23 hours. As controls without light irradiation, reaction solutions are prepared, followed by incubation at 25° C. in a light-shielded state for 24 hours.
as §9, §10
The depletions of the nucleophilic reagents (NAC and NAL) were determined by UV detection at 281 nm or fluorescence detection at an excitation wavelength of 284 nm and a fluorescence wavelength of 333 nm under the HPLC measurement conditions given in “(5) HPLC Measurement” above.
As the conditions without light irradiation, the liquid mixtures were each reacted with the nucleophilic reagents, namely, NAC and NAL, at 25° C. for 24 hours. As the conditions with light irradiation, the liquid mixtures were each irradiated at room temperature with light at 2,000 μW/cm^2 for 1 hour and were then reacted at 25° C. for 23 hours.
All reactions were performed on the 96-well plate. For each sample, n=3. Reaction solutions to which only the solvent used for calculation of the depletions of NAC and NAL was added were also prepared. The reaction solutions were prepared such that the concentrations of NAC and NAL were 5 μmon and the concentration of the test substance was 0.5 mmol/L. After 24 hours, HPLC measurements were made by two detection methods, namely, light absorption detection on a photodiode array (PDA) detector and fluorescence detection on a fluorescence detector. For PDA detection, a trifluoroacetic acid (TFA) aqueous solution was added to the reaction solutions to a final TFA concentration of 0.5% (v/v) before use in the HPLC measurements.

[3] = NAL depletion under and without ultraviolet irradiation, HPLC with fluorescence detection (284 nm excitation, 333 nm fluorescence); conditions: single compound
Experimental: as §1, §2, §3
Test substance solution: 50 μL
as §4, §5, §6, §7, §8, §9, §10

[4] = NAC depletion under and without ultraviolet irradiation, HPLC with UV detection (281 nm); conditions: single compound
Experimental: as §1, §2, §3
Test substance solution: 50 μL
as §4, §5, §6
(§12) NAC depletion (% depletion)=[1−(average peak area of unreacted NAC after reaction/average peak area of NAC) in standard solution (no test substance added)]×100
(§13) The average peak area of unreacted NAC after the reaction is the average area calculated from three measurements on unreacted NAC after the reaction. The average peak area of NAC in a standard solution (no test substance added) is the average area calculated from three measurements on NAC in a reaction solution prepared by adding the solvent used for dissolution of the test substance instead of the test substance solution.
as §9, §10

[5] = Average score of NAC and NAL depletion and phototoxicity or photoallergy determination, UV detection; conditions: single compound
Experimental: as §11, §9
All reactions were performed on the 96-well plate. For each sample, n=3. […] The reaction solutions were prepared such that the concentrations of NAC and NAL were 5 μmon and the concentration of the test substance was 0.25 mmol/L. After 24 hours, HPLC measurements were made by two detection methods, namely, light absorption detection on a photodiode array (PDA) detector and fluorescence detection on a fluorescence detector. […] For fluorescence detection, each sample was diluted tenfold with a 0.5% (v/v) trifluoroacetic acid (TFA) aqueous solution before use in the HPLC measurements. […]

[6] = NAC depletion under and without ultraviolet irradiation, HPLC with fluorescence detection (284 nm excitation, 333 nm fluorescence); conditions: single compound
Experimental: as §1, §2, §3
Test substance solution: 50 μL
as §4, §5, §6, §12, §13, §9, §10

[7] = cited from earlier work
[8] = cited from earlier work; remark: listed apart in the source

Row | Molecule | In vivo photoallergy ([7]; in vivo) | Average score (%) ([2]; under light irradiation) | NAL Depletion (%) ([3]; under light irradiation) | In vivo phototoxicity ([8]; in vivo) | NAC Depletion (%) ([6]; under light irradiation) | In vivo photoallergy ([7]; literature classification) | In vivo phototoxicity ([8]; literature classification) | also measured
1 | CC(O)CO (racemic) [compound 54] | – | – | – | – | – | – | – | Difference in depletion (under light irradiation - without light irradiation) NAL (%) [1]: 0.0%; NAL Depletion (%) ([1]; without light irradiation): 0.0%; Difference in depletion (under light irradiation - without light irradiation) Average score (%) [2]: 0.3%; Average score (%) ([2]; without light irradiation): 0.0%; Difference in depletion (under light irradiation - without light irradiation) NAL (%) [3]: 0.7%; NAL Depletion (%) ([3]; without light irradiation): 0.0%; Difference in depletion (under light irradiation - without light irradiation) NAC (%) [4]: 0.2%; NAC Depletion (%) ([4]; without light irradiation): 0.0%; Difference in depletion (under light irradiation - without light irradiation) Average score (%) [5]: 0.1%; Average score (%) ([5]; without light irradiation): 0.0%; Difference in depletion (under light irradiation - without light irradiation) NAC (%) [6]: 0.0%; NAC Depletion (%) ([6]; without light irradiation): 0.0%
2 | COc1c2occc2cc2ccc(=O)oc12 [No. 3, 8-Methoxypsoralen, reference compound] | Positive | 72.0 | 45.4 | Positive | 98.6 | – | – | –
3 | Cc1c([N+](=O)[O-])c(C)c([N+](=O)[O-])c(C(C)(C)C)c1[N+](=O)[O-] [No. 18, Musk xylene, reference compound] | – | 47.6 | 6.4 | – | 88.9 | Positive | Negative | –
4 | CC1(C)S[C@@H]2[C@H](NC(=O)Cc3ccccc3)C(=O)N2[C@H]1C(=O)O [No. 44, Penicillin G, reference compound] | – | 1.8 | 1.2 | – | 2.4 | Negative | Negative | –
5 | CCO [No. 50, Ethanol] | Negative | 0.0 | – | Negative | – | – | – | –
6 | Tetrachlorosalicylanilide [No. 12, reference compound] | – | 92.0 | 86.5 | – | 97.4 | Positive | Positive | –
